Data on 25 compounds can be found in patent US11149035B2, “Chemical compounds as H—PGDS inhibitors” (GlaxoSmithKline Intellectual Property Development Limited, priority 2017, dated 2021).

The target in this assay is T1, haematopoietic prostaglandin D synthase (H-PGDS) (Homo sapiens, UniProt O60760).
T1 construct: Full length human H-PGDS cDNA (Invitrogen Ultimate ORF IOH13026) was amplified by PCR; 6-His (N); TEV protease cleavage site (N); made in house; host or cells: E. coli BL21 (DE3*)
The assay can be described thus: H-PGDS RapidFire high throughput mass spectrometry assay (conversion of PGH2 to PGD2). Particulars: 10 nM H-PGDS, PGH2 formed in situ by COX-2 from arachidonic acid; four parameter curve fit; read-out: Potency Range (mean pIC50) (converted). Format: biochemical. As to the method:
The H-PGDS RapidFire™ mass spectrometric assay monitors conversion of prostaglandin H2 (PGH2) to prostaglandin D2 (PGD2) by haematopoietic prostaglandin D synthase (H-PGDS). In the assay format described here, the substrate (PGH2) is formed in situ by the action of cyclooxygenase-2 on arachidonic acid. This first step is set up to be fast, and generates a burst of PGH2 at ˜10 μM. The PGH2 is then further converted to PGD2 by the H-PGDS enzyme. […] Plates are then read on the RapidFire™ high throughput solid phase extraction system (Agilent) which incorporates a solid phase extraction step coupled to a triple quadrupole mass spectrometer (AB SCIEX). Relative levels of PGD2 and PGF2α, which acts as a surrogate for substrate, are measured and a percent conversion calculated. Inhibitors are characterised as compounds which lower the conversion of PGH2 to PGD2.
Full length human H-PGDS cDNA (Invitrogen Ultimate ORF IOH13026) was amplified by PCR with the addition of a 5′ 6-His tag and TEV protease cleavage site. The PCR product was digested with NdeI and XhoI and ligated into pET22b+ (Merck Novagen®). Expression was carried out in E. coli strain BL21 (DE3*) using auto-induction Overnight Express™ Instant TB medium (Merck Novagen®) supplemented with 1% glycerol. The culture was first grown at 37° C. and the temperature was reduced to 25° C. when OD600 reached 2.0. Cells were harvested by centrifugation after a further 18 hours. 10 g of E. coli cell pellet was suspended to a total volume of 80 mL in lysis buffer (20 mM Tris-Cl pH 7.5, 300 mM NaCl, 20 mM imidazole, 5 mM β-mercaptoethanol, 10% glycerol). 1 mg/mL protease inhibitors (Protease Inhibitor Cocktail Set III, Merck Calbiochem®) and 1 mg/mL lysozyme were added to the cell suspension. The suspension was then sonicated for 5 min (UltraSonic Processor VCX 750, Cole-Parmer Instrument Co.) with a micro probe (50% amplitude, 10 sec on/off) and then centrifuged at 100,000 g for 90 minutes (at 4° C.). The supernatant was loaded onto a Ni-NTA HiTrap column (5 mL, GE Healthcare, pre-equilibrated in lysis buffer). The column was washed with 10 column volumes of lysis buffer and eluted with lysis buffer containing 500 mM imidazole. The pooled protein peak fractions were concentrated using a 10 kDa centrifugal filter at 3500 g and 4° C. (Amicon Ultra-15 centrifugal filter unit with Ultracel-10 membrane from Millipore). Further purification of the concentrated protein was carried out using gel filtration chromatography on a HiLoad 26/600 Superdex 75 preparative grade column (GE Healthcare Life Sciences) using 50 mM Tris pH 7.5, 50 mM NaCl, 1 mM dithiothreitol, 1 mM MgCl2. Fractions containing the protein were pooled, concentrated as described above, and stored at −80° C.
The full length human COX-2 gene (accession number L15326) was amplified by PCR to generate an EcoRI—HindIII fragment containing an in-frame FLAG tag. This was subcloned into pFastBac 1 (Invitrogen). The COX-2 FLAG plasmid was recombined into the baculovirus genome according to the BAC-to-BAC protocol described by Invitrogen. Transfection into Spodoptera frugiperda (Sf9) insect cells was performed using Cellfectin (Invitrogen), according to the manufacturer's protocol. Super Sf9 cells were cultured in EX420 media (SAFC Biosciences) to a density of approximately 1.5×10^6 cells/mL within a wave bioreactor. Recombinant virus was added at a Multiplicity of Infection (MOI) of 5 and the culture was allowed to continue for 3 days. Cells were harvested using a continuous feed centrifuge run at 2500 g at a rate of approximately 2 L/min with cooling. The resultant cell slurry was re-centrifuged in pots (2500 g, 20 min, 4° C.) and the cell paste was stored at −80° C. 342 g of cell paste was re-suspended to a final volume of 1600 mL in a buffer of 20 mM Tris-Cl pH 7.4, 150 mM NaCl, 0.1 mM EDTA, 1.3% w/v n-octyl-[…] containing 20 Complete EDTA-free Protease Inhibitor Cocktail tablets (Roche Applied Science). […]

T1 sequence (O60760 whole entry): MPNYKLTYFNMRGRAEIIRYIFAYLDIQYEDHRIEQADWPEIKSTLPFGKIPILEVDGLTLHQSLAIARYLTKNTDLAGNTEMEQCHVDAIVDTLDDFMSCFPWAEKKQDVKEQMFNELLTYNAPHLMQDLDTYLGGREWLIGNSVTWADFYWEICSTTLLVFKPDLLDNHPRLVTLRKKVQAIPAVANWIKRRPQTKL

As for `C[C@H]1CCN1c1cc2ncc(C(=O)N[C@H]3C[C@@](C)(O)C3)cc2cn1` [Example 23, N-((1s,3R)-3-Hydroxy-3-methylcyclobutyl)-7-((S)-2-methylazetidin-1-yl)-1,6-naphthyridine-3-carboxamide], the IC50 is 100 to 1000 nM.

Take `C[C@H]1CCN1c1cc2ncc(C(=O)NC3CCN(C(=O)C(C)(C)O)CC3)cc2cn1` [Example 24, (S)—N-(1-(2-Hydroxy-2-methylpropanoyl)piperidin-4-yl)-7-(2-methylazetidin-1-yl)-1,6-naphthyridine-3-carboxamide]: the IC50 is 10 to 79.4 nM.

For `CC(C)(O)[C@H]1CC[C@H](NC(=O)c2cnc3nc(N4CCC4)c(Cl)cc3c2)CC1` [Example 25, 7-(Azetidin-1-yl)-6-chloro-N-(trans-4-(2-hydroxypropan-2-yl)cyclohexyl)-1,8-naphthyridine-3-carboxamide], the IC50 is less than 10 nM.

Take `C[C@H]1CCN1c1cc2ncc(C(=O)N[C@H]3C[C@H](C(C)(C)O)C3)cc2cn1` [Example 26, N-(trans-3-(2-Hydroxypropan-2-yl)cyclobutyl)-7-((S)-2-methylazetidin-1-yl)-1,6-naphthyridine-3-carboxamide]: the IC50 was 10 to 79.4 nM.

Regarding `CC(C)(O)[C@H]1CC[C@H](NC(=O)c2cnc3nc(C4CC4)c(Cl)cc3c2)CC1` [Example 27, 6-Chloro-7-cyclopropyl-N-((trans)-4-(2-hydroxypropan-2-yl)cyclohexyl)-1,8-naphthyridine-3-carboxamide], the IC50 was less than 10 nM.

For the compound `C[C@@H]1CNC(=O)[C@H]1NC(=O)c1cnc2cc(N3CC[C@@H]3C)ncc2c1` [Example 28, N-((3S,4R)-4-Methyl-2-oxopyrrolidin-3-yl)-7-((S)-2-methylazetidin-1-yl)-1,6-naphthyridine-3-carboxamide], the IC50 is 10 to 79.4 nM.

As for `O=C(N[C@H]1CCNC1=O)c1cnc2cc(C3CC3)ncc2c1` [Example 29, (S)-7-Cyclopropyl-N-(2-oxopyrrolidin-3-yl)-1,6-naphthyridine-3-carboxamide], the IC50 was 10 to 79.4 nM.

`C[C@]1(O)CC[C@H](NC(=O)c2cnc3cc(C4CC4)ncc3c2)CC1` [Example 30, 7-Cyclopropyl-N-((1r,4r)-4-hydroxy-4-methylcyclohexyl)-1,6-naphthyridine-3-carboxamide]: the IC50 was 100 to 1000 nM.

Turning to `C[C@]1(O)C[C@@H](NC(=O)c2cnc3cc(C4CC4)ncc3c2)C1` [Example 31, 7-Cyclopropyl-N-((1s,3s)-3-hydroxy-3-methylcyclobutyl)-1,6-naphthyridine-3-carboxamide], the IC50 was 100 to 1000 nM.

Take `CC(C)(O)[C@H]1C[C@H](NC(=O)c2cnc3cc(C4CC4)ncc3c2)C1` [Example 32, 7-Cyclopropyl-N-(trans-3-(2-hydroxypropan-2-yl)cyclobutyl)-1,6-naphthyridine-3-carboxamide]: the IC50 was 10 to 79.4 nM.

`O=C(N[C@H]1CC[C@@](O)(C(F)F)CC1)c1cnc2cc(C3CC3)ncc2c1` [Example 33, 7-Cyclopropyl-N-((1r,4r)-4-(difluoromethyl)-4-hydroxycyclohexyl)-1,6-naphthyridine-3-carboxamide]: the IC50 is 100 to 1000 nM.

With `O=C(N[C@H]1CC[C@H](N2CC(F)C2)CC1)c1cnc2cc(C3CC3)ncc2c1` [Example 35, 7-Cyclopropyl-N-(trans-4-(3-fluoroazetidin-1-yl)cyclohexyl)-1,6-naphthyridine-3-carboxamide], the IC50 is 10 to 79.4 nM.

Turning to `O=C(N[C@H]1CC[C@](O)(C(F)F)CC1)c1cnc2cc(C3CC3)ncc2c1` [Example 36, 7-Cyclopropyl-N-((1s,4s)-4-(difluoromethyl)-4-hydroxycyclohexyl)-1,6-naphthyridine-3-carboxamide], the IC50 was 100 to 1000 nM.

In the case of `O=C(N[C@H]1CC[C@H](N[C@H](CO)C(F)(F)F)CC1)c1cnc2cc(C3CC3)ncc2c1` [Example 37, 7-Cyclopropyl-N-((trans)-4-(((R)-1,1,1-trifluoro-3-hydroxypropan-2-yl)amino)cyclohexyl)-1,6-naphthyridine-3-carboxamide], the IC50 was 10 to 79.4 nM.

In the case of `O=C(N[C@H]1CC[C@H](N2CC(F)(F)C2)CC1)c1cnc2cc(C3CC3)ncc2c1` [Example 38, 7-Cyclopropyl-N-(trans-4-(3,3-difluoroazetidin-1-yl)cyclohexyl)-1,6-naphthyridine-3-carboxamide], the IC50 is 10 to 79.4 nM.

On to `O=C(N[C@H]1C[C@](O)(C(F)(F)F)C1)c1cnc2cc(C3CC3)ncc2c1` [Example 40, 7-Cyclopropyl-N-((1s,3s)-3-hydroxy-3-(trifluoromethyl)cyclobutyl)-1,6-naphthyridine-3-carboxamide], for which the IC50 is 100 to 1000 nM.

Regarding `C[C@]1(O)C[C@H](NC(=O)c2cnc3cc(C4CC4)ncc3c2)C1` [Example 41, 7-Cyclopropyl-N-((1r,3s)-3-hydroxy-3-methylcyclobutyl)-1,6-naphthyridine-3-carboxamide], the IC50 was 100 to 1000 nM.

Regarding `O=C(N[C@H]1C[C@@H](N[C@H](CO)C(F)(F)F)C1)c1cnc2cc(C3CC3)ncc2c1` [Example 42, 7-Cyclopropyl-N-(cis-3-(((R)-1,1,1-trifluoro-3-hydroxypropan-2-yl)amino)cyclobutyl)-1,6-naphthyridine-3-carboxamide], the IC50 was 100 to 1000 nM.

`O=C(N[C@H]1C[C@H](N[C@H](CO)C(F)(F)F)C1)c1cnc2cc(C3CC3)ncc2c1` [Example 43, 7-Cyclopropyl-N-(trans-3-(((R)-1,1,1-trifluoro-3-hydroxypropan-2-yl)amino)cyclobutyl)-1,6-naphthyridine-3-carboxamide]: the IC50 is 100 to 1000 nM.

With `O=C(N[C@H]1CCNC1=O)c1cnc2nc(C3CC3)ccc2c1` [Example 44, (S)-7-Cyclopropyl-N-(2-oxopyrrolidin-3-yl)-1,8-naphthyridine-3-carboxamide], the IC50 is 10 to 79.4 nM.

As to `C[C@]1(O)C[C@@H](NC(=O)c2cnc3nc(C4CC4)ccc3c2)C1` [Example 45, 7-Cyclopropyl-N-((1s,3s)-3-hydroxy-3-methylcyclobutyl)-1,8-naphthyridine-3-carboxamide], the IC50 is 100 to 1000 nM.

Take `C[C@]1(O)C[C@H](NC(=O)c2cnc3nc(C4CC4)ccc3c2)C1` [Example 46, 7-Cyclopropyl-N-((1r,3s)-3-hydroxy-3-methylcyclobutyl)-1,8-naphthyridine-3-carboxamide]: the IC50 was 100 to 1000 nM.

As for `CC(C)(O)[C@H]1C[C@H](NC(=O)c2cnc3nc(C4CC4)ccc3c2)C1` [Example 47, 7-Cyclopropyl-N-(trans-3-(2-hydroxypropan-2-yl)cyclobutyl)-1,8-naphthyridine-3-carboxamide], the IC50 is 10 to 79.4 nM.

In the case of `C[C@]1(O)CC[C@H](NC(=O)c2cnc3nc(C4CC4)ccc3c2)CC1` [Example 48, 7-Cyclopropyl-N-((1r,4r)-4-hydroxy-4-methylcyclohexyl)-1,8-naphthyridine-3-carboxamide], the IC50 is 10 to 79.4 nM.

Regarding `COc1ccc2cc(C(=O)N[C@H]3CC[C@H](C(C)(C)O)CC3)cnc2n1` [Example 50, N-(trans-4-(2-Hydroxypropan-2-yl)cyclohexyl)-7-methoxy-1,8-naphthyridine-3-carboxamide], the IC50 is 10 to 79.4 nM.
